The text below walks through data of article PMC12726774, “HAEEPGP Peptide Efficiently Prevents Alzheimer's Disease Pathology in Vivo” (Alzheimer's & Dementia, 2025).

The nature of one data set: in vivo. The note with it: mouse, plasma, iv. The text has this: (§1) Abstract Background Currently, the only disease‐modifying therapy for Alzheimer's disease (AD) is monoclonal antibodies against beta‐amyloid (Aβ). […] Short peptides could be an alternative treatment to high‐molecular weight antibodies. They have been successfully tested against various neuropathologies. […] The disadvantage of short peptides is their rapid elimination from an organism. In this work, we added PGP amino acids to the HAEE C‐terminus to stabilize the peptide, studied the pharmacokinetics of HAEEPGP and its ability to suppress AD‐associated pathology. Method Direct interaction of HAEEPGP and Aβ peptides was measured by isothermal titration calorimetry. Pharmacokinetics and distribution to tissues of ^125I labeled HAEEPGP were studied after its intravenous injection in C57BL/6 or 5xFAD mice. HAEEPGP ability to prevent Aβ pathological effect on HMC3 microglial cells was assessed by flow cytometry and IL‐6 ELISA kit. HAEEPGP inhibition effect on AD pathology was studied in vivo using two animal models: transgenic C. elegans overexpressing human Aβ and 5xFAD mice. […] Supported by the Russian Science Foundation (grant #19‐74‐30007).

For data set [1] the following is noted: background statement, no reference given; cited from earlier work. The text has this:
They have been successfully tested against various neuropathologies. […] The disadvantage ...

For data set [2] the following is noted: 125I labeled peptide.
Text: as §1

Another data set concerns the target Aβ (Homo sapiens, UniProt P05067). Briefly: Isothermal titration calorimetry, interaction of HAEEPGP with Aβ. The note with it: read-out: Kd of binding to Aβ.
Text: as §1

Read-outs that look alike come from different tables or passages of the source. Residues, ends and D or L forms follow the SMILES beside them. No end group written: not given here.

Sequence of Aβ (P05067 672-713 limits assumed): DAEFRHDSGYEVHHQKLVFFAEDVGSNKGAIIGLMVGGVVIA

In the data set “in vivo”, `C[C@H](NC(=O)[C@@H](N)Cc1c[nH]cn1)C(=O)N[C@@H](CCC(=O)O)C(=O)N[C@@H](CCC(=O)O)C(=O)O` [HAEE] (H-HAEE-OH) returned a half-life of 17 min. Also, in data set [1], the BBB crossing entry is listed as “able to cross the BBB” and the “toxic effect in vivo” value is listed as “no toxic effect”.
As for HAEEPGP [HAEEPGP], the BBB crossing result in data set [2] (intravenous injection, mice) is recorded as “propitiously crossed BBB”. Further, the “level in the mice brain over time” value in data set [2] (during an hour post-injection, intravenous) was “constantly increased”. Further, the “level in the brain, 5xFAD vs wild type mice” value in data set [2] (intravenous, 5xFAD vs C57BL/6) was “higher in 5xFAD than in wild type mice”. For the same compound, the half-life in “in vivo” was found to be 56 ± 12 min. For the same compound, the Kd on Aβ turned out to be 1640 nM.
